# Measurements from publication PMC9386018, “A lymphatic-absorbed multi-targeted kinase inhibitor for myelofibrosis therapy” (Nature Communications, 2022).
# “And” between values parts separate entries of the source, which are not always exact repeats. Identical values can stand only once.
# Assays:
# [1] = system: MPL^W515L mouse model of myelofibrosis; assay: MPL^W515L MF mouse model Study 2: spleen volume by MRI; assay type: in vivo; conditions: for Spleen volume/body weight ratio: Study 2, individual animals, Supplementary Figure 11a
# Description: Generation of the MPL^W515L mutant MF mouse model was similar to previously described methods. Briefly, female donor BALB/c mice were treated with 5-fluorouracil at 150 mg kg^−1 intraperitoneal for 5 d before harvesting bone marrow. Hematopoietic stem and progenitor cells were enriched with CD117 magnetic beads (Miltenyi Biotec), transduced with retrovirus containing MSCV-hMPL W515L-IRES-GFP, then 50,000 transduced HSPCs along with 300,000 total non-stem cells were injected intravenously into lethally irradiated female BALB/c recipients. Development of MF was evaluated by spleen volumes using MRI beginning ~14 d following bone marrow transplantation (BMT) as outlined below, continuing weekly until end of the study. Mice were separated into equal groups based on spleen size ~14–21 d post-BMT, then treated with vehicle (Maisine CC) or LP-182 at 400 mg kg^−1 daily by oral gavage for 14–28 d or until mice were euthanized using guidelines for end stage illness and humane endpoints. Untreated healthy control animals were used for experimental comparisons. Tissues were harvested and processed for flow cytometry (as described above), LCMS/MS, immuno-blotting, and histological analysis (as described in Supplementary Methods) at the defined study endpoint(s), approximately 1–2 h post-treatment with vehicle or LP-182. Briefly, blood samples were collected, transferred into K2-EDTA tubes (BD Microtainer), inverted gently to mix, then centrifuged at 2000 x g for 15 min. […] Dissection and bone marrow isolation from mouse femur and tibia was performed similar to previously described methods. Briefly, the hind limbs from mice were dissected, muscle and connective tissue removed, and bones were frozen at −80 °C. Femur and tibia were thawed separately, placed knee-end down in 18 gauge needle-pierced 0.5 mL microcentrifuge tubes nested inside 1.5 or 2 mL microcentrifuge tubes containing 1.4 mm ceramic beads (Fisher Scientific), then bone marrow was isolated by centrifugation at 10,000 x g for 1 min and processed for analysis by LCMS/MS (above; femur) or immuno-blotting (tibia). […] Soluble protein extracts were isolated by centrifugation at 15,000 x g for 15 min at 4 °C, quantified using Micro BCA protein assay (Thermo Scientific), then mixed with reducing 6X SDS-PAGE loading dye, heated for 8 min at 95 °C, and stored at −20 °C until immuno-blot analysis. Whole cell lysates were resolved by 10% SDS-PAGE, transferred to PVDF (Immobilon-P; MilliporeSigma), then membranes were blocked with 5% BSA (Equitech-Bio) in TBS containing 0.1% Tween-20 (TBST) for 1 h at room temperature with gentle orbital shaking. […]
# [2] = Pathological and histological toxicity screening in healthy mice; assay type: in vivo, mouse; set-up: Hematology Analysis WBC: unit not given here; conditions: for Body weight: Supplementary Figure 8a
# Description: Female CD-1 mice were dosed orally with vehicle (Maisine CC; n = 5) or LP-182 at 400 mg kg^−1 (n = 4) daily for 10 d, followed by an 8 d rest period, then underwent necropsy for hematological, histological, and pathological evaluation by the University of Michigan Unit for Laboratory Animal Medicine In Vivo Animal Core. Untreated animals (n = 3) were also monitored during the study for non-compound related adverse findings (ie. gavage stress impacting weight gain, vehicle-related toxicity), however no findings were observed, thus main comparisons were made between vehicle and compound treated mice. […] Briefly, mice were euthanized by CO2 inhalation, then blood was collected by cardiac puncture and transferred into EDTA anticoagulant-containing tubes, followed by gross necropsy, then tissue harvest and fixation in 10% neutral buffered formalin at a 10:1 (v/v) ratio of fixative to tissue. Differential blood counts were generated from whole blood using a Hemavet 950 automated hematology analyzer (Drew Scientific), and tissues were processed for paraffin embedding using routine histological methods, then sectioned at 4 µm by rotary microtome and mounted on glass slides for hematoxylin and eosin (H&E) staining and evaluation by light microscopy at magnifications ranging from 10–40x. Data was generated from n ≥ 3 individual animals per grouping. Two animals in the vehicle treated group were excluded from blood count analysis due to insufficient sample collection and sample clotting, respectively.
# [3] = healthy mice, oral 400 mg kg^−1 for 10 d, 8 d rest
# [4] = individual animals, Supplementary Figure 8c
# [5] = individual animals, Supplementary Figure 8c, in 10^3/µL (unit assumed)
# [6] = individual animals, Supplementary Figure 8c, in % (unit assumed)
# [7] = individual animals, Supplementary Figure 8c, in fL (unit assumed)
# [8] = individual animals, Supplementary Figure 8c, in g/dL (unit assumed)
compound,measurement,setting,value
"O=C(NOCCOCCOCCOCCC(=O)N1CCN(c2cnc3ccc(-c4cnc(Cl)c(NS(=O)(=O)c5ccc(F)cc5)c4)cc3n2)CC1)c1ccc(F)c(F)c1Nc1ccc(I)cc1F [LP-182, N-(2-(2-(2-(3-(4-(7-(6-chloro-5-((4-fluorophenyl)sulfonamido)pyridin-3-yl)quinoxalin-2-yl)piperazin-1-yl)-3-oxopropoxy)ethoxy)ethoxy)ethoxy)-3,4-difluoro-2-((2-fluoro-4-iodophenyl)amino)benzamide]",attenuation of spleen volume increase compared to vehicle,"[1]; Study 2, MPL^W515L mice, oral 400 mg kg^−1 daily, after 14 d",~ 35%
same,Spleen volume/body weight ratio,[1]; 15 Days Post-BMT,9.2805 mm3/g and 6.788 mm3/g and 8.526 mm3/g and 6.999 mm3/g and 8.219 mm3/g and 8.1905 mm3/g and 7.226 mm3/g and 10.8805 mm3/g
same,Spleen volume/body weight ratio,[1]; 22 Days Post-BMT,22.8 mm3/g and 16.1111 mm3/g and 16.0806 mm3/g and 22.1506 mm3/g and 12.2778 mm3/g and 11.0626 mm3/g and 6.573 mm3/g and 8.03 mm3/g
same,Spleen volume/body weight ratio,[1]; 29 Days Post-BMT,30.4359 mm3/g and 16.7368 mm3/g and 15.8947 mm3/g and 27.7838 mm3/g and 8.806 mm3/g and 15.337 mm3/g and 5.115 mm3/g and 6.324 mm3/g
same,"Relative organ/body weight, Brain","[2]; Brain, individual animals, Supplementary Figure 8b",1.539% and 1.685% and 1.7935% and 1.6704%
same,"Relative organ/body weight, Left kidney","[2]; Left kidney, individual animals, Supplementary Figure 8b",0.6549% and 0.6559% and 0.6824% and 0.6502%
same,"Relative organ/body weight, Liver","[2]; Liver, individual animals, Supplementary Figure 8b",5.775% and 6.631% and 5.788% and 5.583%
same,"Relative organ/body weight, Right kidney","[2]; Right kidney, individual animals, Supplementary Figure 8b",0.662% and 0.6523% and 0.6788% and 0.6203%
same,"Relative organ/body weight, Spleen","[2]; Spleen, individual animals, Supplementary Figure 8b",0.5915% and 0.4229% and 0.6217% and 0.4223%
same,"Relative organ/body weight, Thymus","[2]; Thymus, individual animals, Supplementary Figure 8b",0.2641% and 0.1505% and 0.283% and 0.2317%
same,Body weight,"[2]; Time 1 d, individual animals",24 g and 26 g and 25 g (2×)
same,Body weight,"[2]; Time 5 d, individual animals",26 g (3×) and 27 g
same,Body weight,"[2]; Time 10 d, individual animals",26 g (3×) and 27 g
same,Body weight,"[2]; Time 15 d, individual animals",27 g (3×) and 30 g
same,Body weight,"[2]; Time 18 d, individual animals",28.4 g and 27.9 g and 27.99 g and 26.76 g
same,"adverse effects, body weight, complete blood counts",[2]; [3],"no adverse effects, change in body weight, or change in complete blood counts"
same,necropsy histopathology,[2]; [3],no histopathological abnormalities
same,tolerability,[2]; [3],well tolerated with no observed toxicity
same,Hematology Analysis BA,[2]; [4],0.03 and 0.02 and 0.04 and 0.06
same,Hematology Analysis EO,[2]; [4],0.24 and 0.11 and 0.2 and 0.16
same,Hematology Analysis WBC,[2]; [4],7.06 and 10.06 and 5.16 (2×)
same,Hematology Analysis LY,[2]; [5],4.99 and 6.24 and 3.4 and 3.44
same,Hematology Analysis MO,[2]; [5],0.24 and 0.93 and 0.14 and 0.21
same,Hematology Analysis NE,[2]; [5],1.57 and 2.76 and 1.38 and 1.3
same,Hematology Analysis PLT,[2]; [5],721 and 1152 and 272 and 338
same,Hematology Analysis RBC,"[2]; individual animals, Supplementary Figure 8c, in 10^6/µL (unit assumed)",8.48 and 9.05 and 9.08 and 9.55
same,Hematology Analysis HCT,[2]; [6],49.5 and 47.2 and 51.7 and 49.4
same,Hematology Analysis RDW,[2]; [6],16.8 and 16.2 and 17.4 and 15.3
same,Hematology Analysis MCV,[2]; [7],58.4 and 52.2 and 56.9 and 51.7
same,Hematology Analysis MPV,[2]; [7],5.2 and 4.6 and 5.8 and 5.6
same,Hematology Analysis HB,[2]; [8],13.7 and 13.8 and 15 and 14.2
same,Hematology Analysis MCHC,[2]; [8],27.7 and 29.2 and 29 and 28.7
same,Hematology Analysis MCH,"[2]; individual animals, Supplementary Figure 8c, in pg (unit assumed)",16.2 and 15.2 and 16.5 and 14.9
